Assay results published in article PMC5948259, “A phase I study to assess the mass balance, excretion, and pharmacokinetics of [^14C]-ixazomib, an oral proteasome inhibitor, in patients with advanced solid tumors” (Investigational New Drugs, 2017).
Values joined by “and” are separate entries in the source; they are usually repeats but may differ in a detail not shown here. Equal entries are not always repeated. Where two headings read alike, the source gives them in different places.

Assays:
CYP2D6 = system: CYP2D6; parameters: method as in earlier work; conditions: 10 μM, exceeding clinical concentrations; cited from earlier work
CYP2C19 = system: CYP2C19; parameters: method as in earlier work; conditions: 10 μM, exceeding clinical concentrations; cited from earlier work
CYP2B6 = system: CYP2B6; parameters: method as in earlier work; conditions: 10 μM, exceeding clinical concentrations; cited from earlier work
advanced solid tumors = experiment: Disease status during the study (efficacy, not a formal endpoint); assay type: in vivo, human; conditions: for Time on study with long-term stable disease: single-agent ixazomib
Procedure: (§1) This study was conducted in two parts: a 35-day PK cycle (Part A), followed by repeated 28-day treatment cycles (Part B; Fig. 1). In Part A of the study, patients who met the inclusion and exclusion criteria were admitted to the study clinic on the morning of day 1 for the initial confinement period (days 1–8). Patients received a single 10 mL oral solution dose of 4.1 mg [^14C]-ixazomib containing approximately 500 nCi of TRA, followed by 3 × 10 mL water rinses of the dosing cup. Patients then drank approximately 200 mL of water. Patients returned to the clinic on days 14, 21, 28, and 35 for a 24 h overnight clinic visit. Non-radiolabeled doses of ixazomib (4 mg capsule) were administered on days 14 and 21. After completing their day 35 assessments in Part A, patients were permitted to continue into Part B of the study, where they received non-radiolabeled ixazomib (4 mg capsules) once weekly on days 1, 8, and 15 of each 28-day treatment cycle until disease progression or unacceptable toxicity. All doses of ixazomib were administered on an empty stomach, at least 1 h before or at least 2 h after food.

CYP1A2 = system: CYP1A2; parameters: method as in earlier work; conditions: 10 μM, exceeding clinical concentrations; cited from earlier work
[1] = Mass balance: recovery of TRA in urine and feces by accelerator mass spectrometry; assay type: in vivo, human; conditions: for Total recovery (%) of TRA in urine and feces: days 1–35
Procedure: The primary objectives of the study were: (1) to assess the mass balance (i.e., cumulative excretion of TRA in urine and feces) of ixazomib following a single oral solution dose of 4.1 mg [^14C]-ixazomib containing approximately 500 nCi of TRA (specific activity of 125 nCi/mg); and (2) to characterize the PK of ixazomib in plasma and urine, and of TRA in plasma and whole blood, after a single oral solution dose of 4.1 mg [^14C]-ixazomib. The secondary objective was to assess the safety and tolerability of multiple-dose ixazomib administration in patients with advanced solid tumors or lymphoma.
as §1
Plasma and whole blood samples were collected at the following time points after ixazomib administration on day 1 of Part A: 0 (predose), 0.5, 1, 2, 3, 4, 8, 24, 48, 72, 96, 120, 144, 168, 312 (day 14), 480 (day 21), 648 (day 28), and 816 (day 35) h post dose. Complete urinary and fecal output was collected continuously during the initial confinement period of Part A (days 1–8). Patients were discharged from the clinic on day 8 and returned on days 14, 21, 28, and 35 for a 24 h overnight visit. Urinary and fecal output was collected during each of these 24 h overnight clinic visits. Patients were also instructed to collect all feces at home for the 24 h period before each overnight clinic visit (days 13, 20, 27, and 34).
To achieve enhanced analytical sensitivity, accelerator mass spectrometry (AMS) was used to determine TRA in urine, feces, whole blood, and plasma samples. […] At the testing facility (Accium BioSciences, Seattle, WA, USA), samples were assigned a unique tracking number, labeled, and stored at −70 °C until further analysis. Samples were subsequently removed from storage, thawed at room temperature, and thoroughly mixed. A known aliquot of each specimen was transferred to a pre-baked quartz tube and a known amount of carbon carrier added. Samples were then dried using vacuum centrifugation and submitted for graphitization; a known amount of each specimen was combusted and then reduced to graphite for measurement of total ^14C in the sample [22]. The resulting iron-graphite mixture was pressed into individual cathodes and submitted for AMS measurement on a National Electrostatics 5.2.1.Corporation (NEC) 1.5SDH Compact AMS System (Middleton, WI) running data acquisition software developed by NEC. Total carbon measurements were performed on a Shimadzu V-Series Total 5.2.2.Organic Carbon Analyzer, which uses oxidative combustion combined with non-dispersive infrared detection for the determination of total carbon concentrations. […]

[2] = cited from earlier work
[3] = parameters: method as in PMID 28550039; conditions: 4 mg capsules, relapsed or refractory light-chain amyloidosis, cited from earlier work

## CC(C)C[C@H](NC(=O)CNC(=O)c1cc(Cl)ccc1Cl)B(O)O [ixazomib]
CYP2D6
  Estimated relative contribution of 2D6 to metabolism: 5%
CYP2C19
  Estimated relative contribution of 2C19 to metabolism: 5%
CYP2B6
  Estimated relative contribution of 2B6 to metabolism: 16%
Advanced solid tumors; 7 patients enrolled
  Patients who developed progressive disease during the study period: 5 patients
Advanced solid tumors; patient with cholangiocarcinoma
  Time on study with long-term stable disease: 162 days
Advanced solid tumors; patient with ovarian cancer
  Time on study with long-term stable disease: 427 days
CYP1A2
  Estimated relative contribution of 1A2 to metabolism: 26%
[1]; Mean (SD), N = 5
  Cumulative TRA recovered in feces (days 1–35, %) of administered dose: 21.8% and 21.8 (3.41) %
  Cumulative TRA recovered in urine (days 1–35, %) of administered dose: 62.1% and 62.1 (21.2) %
  Total recovery (%) of TRA in urine and feces: 83.9 (20.7) %
[1]; Patient 001
  Cumulative TRA recovered in feces (days 1–35, %) of administered dose: 18.3%
  Cumulative TRA recovered in urine (days 1–35, %) of administered dose: 40.8%
  Total recovery (%) of TRA in urine and feces: 59.1%
[1]; Patient 002
  Cumulative TRA recovered in feces (days 1–35, %) of administered dose: 18.7%
  Cumulative TRA recovered in urine (days 1–35, %) of administered dose: 96.0%
  Total recovery (%) of TRA in urine and feces: 115%
[1]; Patient 005
  Cumulative TRA recovered in feces (days 1–35, %) of administered dose: 26.4%
  Cumulative TRA recovered in urine (days 1–35, %) of administered dose: 58.5%
  Total recovery (%) of TRA in urine and feces: 84.9%
[1]; Patient 006
  Cumulative TRA recovered in feces (days 1–35, %) of administered dose: 23.7%
  Cumulative TRA recovered in urine (days 1–35, %) of administered dose: 49.3%
  Total recovery (%) of TRA in urine and feces: 73.0%
[1]; Patient 007
  Cumulative TRA recovered in feces (days 1–35, %) of administered dose: 21.9%
  Cumulative TRA recovered in urine (days 1–35, %) of administered dose: 65.7%
  Total recovery (%) of TRA in urine and feces: 87.6%
[1]; after day 28
  Daily increment in excretion of TRA: < 1%
[1]; by day 14 post dose
  Mean cumulative excretion of TRA in urine and feces: 59.0%
[1]; day 28 (plateau of excretion rate)
  Mean total recovery of TRA in urine and feces: 79.4%
[1]; inferred from urinary TRA recovery
  Orally administered dose absorbed into the systemic circulation, suggested by urinary recovery: at least 62%
[2]; moderate and severe hepatic impairment
  Higher total systemic exposure of ixazomib: 20%
[2]; population PK analyses
  Effect of mild hepatic impairment (total bilirubin ≤1.5 x ULN) on ixazomib PK: no clinically meaningful effect
  Effect of mild renal impairment (CrCl ≥30 mL/min) on ixazomib PK: no clinically meaningful effect
[2]; severe renal impairment and end-stage renal disease
  Higher total systemic exposure of ixazomib compared with normal renal function: 39%
[2]; severe renal impairment, end-stage renal disease requiring dialysis, moderate or severe hepatic impairment, dedicated phase I studies
  Plasma exposures versus patients with normal organ function: increased
[3]; day 1
  Whole blood to plasma AUC0–168 ratio for ixazomib alone: 12.7
[3]; day 15
  Whole blood to plasma AUC0–168 ratio for ixazomib alone: 9.86
